Article PMC4970318 (Journal of molecular biology, 2014)
Peptide text beside a SMILES is read from it. * marks the point of attachment. FITC = O=C1OC2(c3ccc(O)cc3Oc3cc(O)ccc32)c2ccc(NC(=S)*)cc21; Ahx = NCCCCCC(=O)O

Columns and labels:
[1] = biological target: M3P6m (I71V mutant of M3P6) (Homo sapiens, UniProt Q5TCQ9, I1085V); type: binding
[2] = biological target: M3P6 (MAGI-3 PDZ6) (Homo sapiens, UniProt Q5TCQ9); type: binding; conditions: for selectivity for M3P6 over N2P2: ratio of Ki values of Table 1; for shift in selectivity towards M3P6: relative to the native peptide, M3P6 vs N2P2
[3] = biological target: N2P2 (NHERF-2 PDZ2) (Homo sapiens, UniProt Q15599); experiment: biochemical
Chain of N2P2 (NHERF-2 PDZ2) (Q15599 143-280): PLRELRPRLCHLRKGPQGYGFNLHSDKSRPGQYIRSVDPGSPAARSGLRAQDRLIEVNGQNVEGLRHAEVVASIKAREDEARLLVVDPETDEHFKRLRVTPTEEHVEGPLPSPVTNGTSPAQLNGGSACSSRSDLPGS

Chain of M3P6m (I71V mutant of M3P6) (Q5TCQ9 1040-1149 isoform Q5TCQ9-2 I1110V): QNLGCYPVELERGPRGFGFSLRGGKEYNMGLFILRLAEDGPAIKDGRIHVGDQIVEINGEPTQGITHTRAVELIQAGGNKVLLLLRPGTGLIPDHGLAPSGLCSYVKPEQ
Chain of M3P6 (MAGI-3 PDZ6) (Q5TCQ9 1040-1149 isoform Q5TCQ9-2): as the sequence (Q5TCQ9 1040-1149 isoform Q5TCQ9-2 I1110V) above, with V71I counted along it

`CC(C)[C@H](NC(=O)[C@H](CCCNC(=N)N)NC(=O)[C@@H](NC(=O)[C@H](C)NC(=O)[C@H](Cc1ccccc1)NC(=O)[C@@H](N)CC(=O)O)[C@@H](C)O)C(=O)O` [CAR, DFATRV] (H-DFATRV-OH) showed a Ki [1] of 285 ± 24.5 µM.
`CC(C)[C@H](NC(=O)[C@@H](NC(=O)[C@@H](NC(=O)[C@H](C)NC(=O)[C@H](Cc1ccccc1)NC(=O)[C@@H](N)CC(=O)O)[C@@H](C)O)[C@@H](C)O)C(=O)O` [CAT, DFATTV] (H-DFATTV-OH) was tested, and the Ki [1] was 351 ± 17.9 µM.
`CC(C)[C@H](NC(=O)[C@H](CCCNC(=N)N)NC(=O)[C@@H](NC(=O)[C@H](CO)NC(=O)[C@H](Cc1ccccc1)NC(=O)[C@@H](N)CC(=O)O)[C@@H](C)O)C(=O)O` [CSR, DFSTRV] (H-DFSTRV-OH) gave a Ki [1] of 510 ± 51.4 µM.
In the case of `CC(C)[C@H](NC(=O)[C@@H](NC(=O)[C@@H](NC(=O)[C@H](CO)NC(=O)[C@H](Cc1ccccc1)NC(=O)[C@@H](N)CC(=O)O)[C@@H](C)O)[C@@H](C)O)C(=O)O` [CST, DFSTTV] (H-DFSTTV-OH), the Ki [1] is reported as 242 ± 17.6 µM.
For `C[C@@H](O)[C@H](N)C(=O)NCC(=O)N[C@@H](CCC(=O)O)C(=O)N[C@H](C(=O)N[C@H](C(=O)N[C@@H](Cc1ccccc1)C(=O)O)[C@@H](C)O)[C@@H](C)O` [FD1, TGETTF] (H-TGETTF-OH), the Ki [2] was 600 ± 300 µM and the Ki [1] was 151 ± 15.9 µM.
`C[C@@H](O)[C@H](NC(=O)[C@H](CO)NC(=O)CNC(=O)[C@H](CO)NC(=O)CNC(=O)CNC(=O)CCCCCNC(=S)Nc1ccc2c(c1)C(=O)OC21c2ccc(O)cc2Oc2cc(O)ccc21)C(=O)N[C@@H](CCCNC(=N)N)C(=O)N[C@@H](Cc1ccccc1)C(=O)O` [FD2 8-mer, FITC-Ahx-GGSGSTRF] ({FITC-Ahx}-GGSGSTRF-OH) gave a Kd [3] of 3.6 ± 0.5 µM.
`C[C@@H](O)[C@H](NC(=O)[C@H](CO)NC(=O)CNC(=O)[C@@H](N)CO)C(=O)N[C@@H](Cc1c[nH]cn1)C(=O)N[C@@H](Cc1ccccc1)C(=O)O` [FD3, SGSTHF] (H-SGSTHF-OH) gave a Ki [2] greater than 1000 µM.
Compound `CSCC[C@H](NC(=O)[C@@H](N)CC(C)C)C(=O)N[C@@H](CC(=O)O)C(=O)N[C@@H](CO)C(=O)N[C@H](C(=O)N[C@@H](CC(C)C)C(=O)O)[C@@H](C)O` [LPA2 6-mer, LMDSTL, reference compound] (H-LMDSTL-OH) has a Ki [2] of 47.4 ± 2.6 µM and a Ki [1] of 67.7 ± 5.4 µM.
For `CC(C)[C@H](NC(=O)[C@H](Cc1c[nH]c2ccccc12)NC(=O)[C@@H](NC(=O)[C@H](CCC(=O)O)NC(=O)[C@H](Cc1ccccc1)NC(=O)[C@@H](N)CC(=O)O)[C@@H](C)O)C(=O)O` [RD1, DFETWV] (H-DFETWV-OH), the Ki [2] was 1.8 ± 0.5 µM, the “selectivity for M3P6 over N2P2” value [2] was 3 fold and the “shift in selectivity towards M3P6” value [2] was 5 fold.
With `CC(C)[C@H](NC(=O)[C@H](Cc1c[nH]c2ccccc12)NC(=O)[C@@H](NC(=O)[C@H](CCC(=O)O)NC(=O)[C@H](Cc1ccccc1)NC(=O)CN)[C@@H](C)O)C(=O)O` [RD2, GFETWV] (H-GFETWV-OH) the Ki [2] was 2.7 ± 0.4 µM, the “selectivity for M3P6 over N2P2” value [2] was 4.6 fold and the “shift in selectivity towards M3P6” value [2] was 8 fold.
`CC(C)[C@H](NC(=O)[C@H](Cc1c[nH]c2ccccc12)NC(=O)[C@@H](NC(=O)[C@H](CC(=O)O)NC(=O)[C@H](Cc1ccccc1)NC(=O)CN)[C@@H](C)O)C(=O)O` [RD3, GFDTWV] (H-GFDTWV-OH) gave a Ki [2] of 6.8 ± 1.5 µM.
